The values below are quoted from earlier work in patent US12690594B2, “Apparatus and methods for dissolving carbon dioxide in water” (ECO-OXYGEN TECHNOLOGIES, LLC, priority 2023, dated 2026).

The test system of the data set is dreissenid mussel. The conditions noted are these: laboratory and field studies; no concentration or exposure time printed.

`O=C=O` [carbon dioxide]: the mortality result is on record as “successfully cause mortality”; the “rate of veliger byssogenesis (settlement and colonization)” value is reported as “reduction in the rate of veliger byssogenesis”.
